The values that follow are results of earlier work, collected in PMC7933701 (Biochemistry and Biophysics Reports, 2021).

For this series, the system named is PSA. Conditions: peptide carrier of doxorubicin prodrug.

With Mu-His-Ser-Ser-Lys-Leu-Gln-Leu, the “hydrolysis by PSA (in words)” value is “precisely hydrolysable by PSA”.
